What was measured:
Format in all cases: cell-based
NR2F6 = molecular target: T1, NR2F6 (Homo sapiens, UniProt P10588); assay: NR2F6 agonist screening, Firefly signal cmpd/DMSO; conditions: clone F4
T1 construct: expressed in transfected cells; also transient transfection
T1 sequence (P10588 1-404): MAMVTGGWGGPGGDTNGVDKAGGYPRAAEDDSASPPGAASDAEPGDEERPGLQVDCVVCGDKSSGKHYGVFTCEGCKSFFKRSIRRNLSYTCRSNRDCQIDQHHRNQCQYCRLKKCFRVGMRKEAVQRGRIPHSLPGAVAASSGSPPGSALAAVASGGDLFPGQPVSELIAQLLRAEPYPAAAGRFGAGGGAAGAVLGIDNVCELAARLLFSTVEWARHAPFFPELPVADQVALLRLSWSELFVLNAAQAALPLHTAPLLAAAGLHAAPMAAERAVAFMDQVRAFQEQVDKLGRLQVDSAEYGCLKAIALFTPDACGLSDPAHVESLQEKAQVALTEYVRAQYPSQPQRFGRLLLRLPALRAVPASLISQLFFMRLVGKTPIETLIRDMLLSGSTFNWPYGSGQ

ERα [1] = molecular target: T2, ERα (Homo sapiens, UniProt P03372); assay: Counterscreening, Firefly signal with ERα transient transfection (Firefly_ERa); conditions: 10 uM
T2 construct: expressed in transfected cells
T2 sequence (P03372 1-595): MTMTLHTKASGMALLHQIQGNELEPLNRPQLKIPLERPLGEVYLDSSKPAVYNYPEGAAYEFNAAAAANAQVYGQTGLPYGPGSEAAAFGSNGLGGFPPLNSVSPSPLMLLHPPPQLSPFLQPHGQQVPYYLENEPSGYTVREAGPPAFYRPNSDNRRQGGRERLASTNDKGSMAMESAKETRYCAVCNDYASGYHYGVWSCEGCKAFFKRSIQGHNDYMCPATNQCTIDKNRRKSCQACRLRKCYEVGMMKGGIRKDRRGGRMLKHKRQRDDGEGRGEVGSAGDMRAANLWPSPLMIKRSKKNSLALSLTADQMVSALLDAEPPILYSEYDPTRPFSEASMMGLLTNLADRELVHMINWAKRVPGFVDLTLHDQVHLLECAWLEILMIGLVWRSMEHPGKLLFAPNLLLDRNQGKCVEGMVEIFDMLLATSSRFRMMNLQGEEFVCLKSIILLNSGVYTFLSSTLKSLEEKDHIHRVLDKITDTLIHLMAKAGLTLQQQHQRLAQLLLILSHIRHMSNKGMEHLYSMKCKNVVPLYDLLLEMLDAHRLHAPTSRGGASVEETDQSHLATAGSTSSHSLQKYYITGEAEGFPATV
Method: The methodology for screening candidate compounds as NR2F6 agonists was as follows: For primary screening, hit criteria was ACT %>DMSO control+5*SD (DSO control) at 10 μM, or any compound with S/B>2. For rescreening, hit criteria was ACT %>DMSO control+3*SD (DSO control) in each replicate at 10 μM. For counterscreening, hit criteria was mean ACT<DMSO control+3*SD (DMSO control) with ERα transient transfection in duplicate at 10 μM.

Renilla = Renilla signal in NR2F6 agonist screening, cmpd/DMSO; conditions: Renilla, clone F4, read-out: Renilla F4, cmpd/DMSO (mean)
Renilla_ERa = assay: Renilla signal in ERα counterscreen (Renilla_ERa); conditions: read-out: Renilla ERalpha transient, cmpd/DMSO (mean)
ERα [2] = molecular target: T2, ERα; assay: Counterscreening, Firefly signal with ERα transient transfection (Firefly_ERa)

Structure (SMILES)	Firefly F4, cmpd/DMSO (mean) (NR2F6; 2 uM)	Firefly F4, cmpd/DMSO (mean) (NR2F6; 10 uM)	Firefly F4, cmpd/DMSO (mean) (NR2F6; 40 uM)	Firefly ERalpha transient, cmpd/DMSO (mean) (ERα [1])	fold induction at 2 µM (Renilla)	fold induction at 10 µM (Renilla)	fold induction at 40 µM (Renilla)	fold induction at 2 µM (Renilla_ERa)	fold induction at 10 µM (Renilla_ERa)	fold induction at 40 µM (Renilla_ERa)	Firefly ERalpha transient, cmpd/DMSO (mean) (ERα [2]; 2 uM)	Firefly ERalpha transient, cmpd/DMSO (mean) (ERα [2]; 40 uM)
CCOC(=O)c1cnc2c(Cl)cc(Cl)cc2c1NCCCN1CCCCC1 [Compound Z37]	1.0	1.4	0.7	1.5	1	0.9	0.5	1	1.7	0.7	1.1	1.2
COc1ccc2nc(C(F)(F)F)c(C#N)c(NCc3ccc(Cl)cc3)c2c1 [Compound Z38]	0.5	0.8	0.6	0.5	0.7	0.6	0.4	0.9	0.6	0.6	0.9	0.5
COc1ccc2nc(C(F)(F)F)c(C#N)c(NCCc3ccc(Cl)cc3)c2c1 [Compound Z39]	0.8	1.0	0.7	0.5	0.7	0.5	0.5	1.1	0.6	0.6	1.2	0.8
COc1ccc2nc(C(F)(F)F)c(C#N)c(NCCOc3ccc(Cl)cc3)c2c1 [Compound Z40]	0.8	0.7	0.8	0.3	0.7	0.6	0.5	1	0.7	0.6	1.0	1.0
COc1ccc2nc(C(F)(F)F)c(C#N)c(N3CCN(C)CC3)c2c1 [Compound Z41]	1.0	1.1	1.7	1.4	0.7	0.6	0.6	1	1.1	0.8	0.9	1.6
Cc1ccc(CCCNc2c(C#N)c(C(F)(F)F)nc3ccc(Oc4ccccc4)cc23)cc1 [Compound Z42]	0.9	0.9	0.6	1.8	1.2	0.9	0.7	1.1	0.9	0.7	1.5	1.1
N#Cc1c(C(F)(F)F)nc2ccc(Cl)cc2c1N1CCOCC1 [Compound Z43]	1.3	0.8	0.8	0.9	1	0.9	0.7	1	1	0.9	1.4	1.6
COc1ccc(-c2cc3n(n2)C(N)=C(C#N)C(c2c[nH]c4ccccc24)(C(F)(F)F)N3)cc1OC (stereo not drawn) [Compound Z44]	0.8	0.8	0.4	1.2	1.7	1.5	0.3	1.1	0.9	0.5	1.2	1.0
COc1ccc(-c2cc3n(n2)C(N)=C(C#N)C(c2ccc(N4CCOCC4)cc2)(C(F)(F)F)N3)cc1OC (stereo not drawn) [Compound Z45]	0.8	1.2	0.5	0.6	1.2	1.2	1.1	1.1	0.8	1	0.8	0.7
COC(=O)CNc1c(C#N)c(C(F)(F)F)nc2ccc(OC)cc12 [Compound Z46]	0.6	0.8	0.6	0.8	0.9	0.8	0.6	0.9	1	1	0.9	0.6
COC(=O)c1[nH]c2c(c(C(F)(F)F)nc3ccc(OC)cc32)c1N [Compound Z47]	0.9	1.3	2.0	1.0	1.1	1.2	1.7	1.2	1.4	1.2	0.9	1.7
N#Cc1c(C(F)(F)F)nc2ccc(Cl)cc2c1NC1CC1 [Compound Z48]	0.9	0.5	0.7	0.3	0.8	0.6	0.6	1.1	0.8	0.6	1.5	0.5
N#CC1=C(N)n2nc(-c3ccccc3)cc2NC1(c1ccc(N2CCOCC2)cc1)C(F)(F)F (stereo not drawn) [Compound Z49]	0.8	0.7	0.6	0.4	1	0.7	0.8	1	0.7	0.8	1.0	0.4
COc1ccc(-c2cc3n(n2)C(N)=C(C#N)C(c2cccn2C)(C(F)(F)F)N3)cc1OC (stereo not drawn) [Compound Z50]	0.8	0.9	0.6	0.7	1.6	2	0.8	1	0.8	0.6	1.3	0.7

— patent US11377442B2, “Small molecule agonists and antagonists of NR2F6 activity” (ZANDER THERAPEUTICS, INC., priority 2016, dated 2022)
